From ChEMBL document CHEMBL1201862, “PubChem BioAssay data set” (2004)
Activity calls are given as the source filed them.

Columns and labels:
[1] = inhibitors of firefly luciferase expression or activity, dose response, H4 neuroglioma cells, luminescence (AID 1990); assay type: functional, cell-based
BJ [2] = experiment: cytotoxicity toward BJ-TERT fibroblasts, dose response, cell-based, RAS-independent, luminescence (AID 1933); assay type: functional; conditions: Homo sapiens
[3] = Luminescence Cell-Based Dose Response HTS to Identify Inhibitors of 5'UTR Stem-Loop Driven Prion Protein mRNA Translation in H4 Neuroglioblastoma Cells. [Related pubchem assays: 1827 (Project Summary), 1813 (Primary HTS)]; assay type: functional
[4] = inhibitors of SNCA 5'UTR-driven reporter translation, confirmation, H4 neuroglioma cells, luminescence (AID 1988); assay type: functional, cell-based
BJ [5] = experiment: cells; assay type: functional, cell-based; conditions: Homo sapiens
BJ [6] = experiment: cytotoxicity toward BJ-TERT-LT-ST fibroblasts, dose response, cell-based, RAS-independent, luminescence (AID 1935); assay type: functional; conditions: Homo sapiens;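 note: BJ fibroblasts immortalized with TERT plus LT and ST oncogenes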
[7] = cytotoxicity toward DRD oncogenic fibroblasts, dose response, cell-based, non-viral oncogenic, luminescence (AID 1934); assay type: functional; conditions: Homo sapiens
BJ [8] = experiment: cytotoxicity toward Ras-transformed BJeLR fibroblasts, dose response, cell-based, alamar blue fluorescence, cherrypicked samples (AID 2631); assay type: functional; conditions: Homo sapiens;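 note: confirmatory dose-response assay in RAS-dependent BJ fibroblasts engineered with TERT, LT and ST, with cytotoxicity read by fluorescence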
HEK293 = experiment: cytotoxicity in HEK293T NF-kB-Luc cells, SAR follow-up, cytotoxicity control for NF-kB activator project, cell-based, resazurin fluorescence (AID 493251); assay type: functional; conditions: Homo sapiens
[9] = target: Cell division cycle 7-related protein kinase (Homo sapiens, UniProt O00311); assay type: functional;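 note: value obtained from a kinome-wide kinase panel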
Cell division cycle 7-related protein kinase, sequence (O00311 whole entry): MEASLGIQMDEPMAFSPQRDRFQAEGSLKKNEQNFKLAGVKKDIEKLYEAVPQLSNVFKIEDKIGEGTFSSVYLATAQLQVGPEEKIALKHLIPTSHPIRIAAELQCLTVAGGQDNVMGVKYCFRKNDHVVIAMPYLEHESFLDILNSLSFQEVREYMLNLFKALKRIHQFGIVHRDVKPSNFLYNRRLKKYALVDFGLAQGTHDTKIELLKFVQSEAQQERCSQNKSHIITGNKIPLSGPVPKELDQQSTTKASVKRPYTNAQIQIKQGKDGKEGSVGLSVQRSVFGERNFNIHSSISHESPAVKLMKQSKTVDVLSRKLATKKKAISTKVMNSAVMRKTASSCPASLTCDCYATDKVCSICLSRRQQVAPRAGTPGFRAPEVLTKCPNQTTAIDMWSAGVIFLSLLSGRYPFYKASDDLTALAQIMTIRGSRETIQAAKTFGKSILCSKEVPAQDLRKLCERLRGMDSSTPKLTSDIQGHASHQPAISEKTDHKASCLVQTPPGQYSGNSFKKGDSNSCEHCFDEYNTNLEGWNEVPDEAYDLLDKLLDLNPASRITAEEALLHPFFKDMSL

[10] = target: Cyclin-dependent kinase 7 (Homo sapiens, UniProt P50613); assay type: functional;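 note: value comes from a kinome-wide kinase profiling panel in which CDK7 is one member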
Cyclin-dependent kinase 7, sequence (P50613 whole entry): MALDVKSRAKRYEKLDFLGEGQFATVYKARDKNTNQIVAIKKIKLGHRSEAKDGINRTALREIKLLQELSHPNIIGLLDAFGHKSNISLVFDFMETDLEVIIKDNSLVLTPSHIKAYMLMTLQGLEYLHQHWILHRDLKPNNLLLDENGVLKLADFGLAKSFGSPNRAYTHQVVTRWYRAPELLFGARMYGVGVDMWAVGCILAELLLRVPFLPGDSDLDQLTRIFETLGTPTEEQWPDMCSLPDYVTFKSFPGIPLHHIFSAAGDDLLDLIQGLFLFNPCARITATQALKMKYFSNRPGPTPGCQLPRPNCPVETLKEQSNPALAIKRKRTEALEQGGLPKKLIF

[11] = target: Cyclin-dependent kinase 9 (Homo sapiens, UniProt P50750); assay type: functional;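 note: value from the CDK9 entry of a kinome-spanning kinase panel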
Cyclin-dependent kinase 9, sequence (P50750 whole entry): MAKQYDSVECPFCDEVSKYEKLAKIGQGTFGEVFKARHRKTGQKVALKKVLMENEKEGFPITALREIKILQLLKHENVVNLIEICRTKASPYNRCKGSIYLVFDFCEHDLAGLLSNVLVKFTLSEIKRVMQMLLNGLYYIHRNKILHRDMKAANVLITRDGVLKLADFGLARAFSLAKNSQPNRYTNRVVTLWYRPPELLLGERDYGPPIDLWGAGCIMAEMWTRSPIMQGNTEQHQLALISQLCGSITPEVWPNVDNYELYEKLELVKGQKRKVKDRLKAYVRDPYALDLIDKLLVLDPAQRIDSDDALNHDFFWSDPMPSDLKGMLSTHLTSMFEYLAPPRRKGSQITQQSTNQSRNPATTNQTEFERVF

[12] = THP-1 cell cytotoxicity, cytotoxicity control, set 4 (AID 504911); assay type: functional; conditions: Mycobacterium tuberculosis
[13] = target: Glucose-6-phosphate 1-dehydrogenase (Homo sapiens, UniProt P11413); experiment: human G6PD enzyme inhibitors, dose response, selectivity assay for P. falciparum G6PD inhibitor project, biochemical, fluorescence (AID 504792); assay type: functional
Glucose-6-phosphate 1-dehydrogenase, sequence (P11413 whole entry): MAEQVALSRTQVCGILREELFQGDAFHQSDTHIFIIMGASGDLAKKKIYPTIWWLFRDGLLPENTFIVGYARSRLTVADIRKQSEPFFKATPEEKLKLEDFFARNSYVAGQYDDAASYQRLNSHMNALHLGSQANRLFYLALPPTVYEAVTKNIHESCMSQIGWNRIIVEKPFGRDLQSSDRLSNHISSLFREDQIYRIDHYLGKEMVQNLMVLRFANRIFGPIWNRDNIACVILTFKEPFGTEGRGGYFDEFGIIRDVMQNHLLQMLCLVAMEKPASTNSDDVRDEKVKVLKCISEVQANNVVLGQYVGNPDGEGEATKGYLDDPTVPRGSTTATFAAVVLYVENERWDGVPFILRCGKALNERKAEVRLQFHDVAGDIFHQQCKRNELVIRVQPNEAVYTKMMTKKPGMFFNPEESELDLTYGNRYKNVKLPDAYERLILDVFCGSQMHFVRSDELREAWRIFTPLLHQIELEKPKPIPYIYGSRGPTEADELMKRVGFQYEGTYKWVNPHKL

[14] = target: T1, Sentrin-specific protease 8 (Homo sapiens, UniProt Q96LD8); assay type: functional
T1 sequence (Q96LD8 whole entry): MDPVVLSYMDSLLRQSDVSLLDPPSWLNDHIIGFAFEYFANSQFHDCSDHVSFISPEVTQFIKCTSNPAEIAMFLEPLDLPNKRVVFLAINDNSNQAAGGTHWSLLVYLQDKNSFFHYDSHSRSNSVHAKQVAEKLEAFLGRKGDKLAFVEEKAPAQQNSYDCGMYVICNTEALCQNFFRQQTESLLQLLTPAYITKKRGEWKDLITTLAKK

[15] = target: T1, Sentrin-specific protease 8; assay type: functional; remark: listed apart in the source

Row | SMILES | EC50 [1] | EC50 (BJ [2]) | EC50 [3] | EC50 [4] | EC50 (BJ [5]) | EC50 (BJ [6]) | EC50 [7] | EC50 (BJ [8]) | other results
1 | N#CC1=C(N)Oc2cc(N)ccc2C1c1cccc(Br)c1 (centres undefined) | 1830 nM (active) | 1200 nM (active) | 502 nM (active) | 180 nM (active) | 702 nM (active) | 859 nM (inconclusive) | 658 nM (active) | 182 nM (active) | –
2 | COC(=O)CCc1nc(-c2ccc(C(C)(C)C)cc2)no1 | – | – | – | – | – | – | – | – | IC50 (HEK293): > 80000 nM (inactive)
3 | NC(=O)c1ccc(-c2ccncc2)cc1N1CCCC1 | – | – | – | – | – | – | – | – | Ki [9]: 126 nM (active); Ki [10]: > 2510 nM (inactive); Ki [11]: 1000 nM (active)
4 | O=C(CSc1ncccn1)NC1CCCCC1 | – | – | – | – | – | – | – | – | CC50 [12]: > 100000 nM (active)
5 | Cc1ccc(Nc2cc(C)c(O)c(C)c2)cc1 | – | – | – | – | – | – | – | – | IC50 [13]: 40000 nM (inactive); IC50 [14]: 23700 nM (active); IC50 [15]: 13900 nM (active)
6 | Cc1cc2nc(/C=C/c3cccnc3)[nH]c2cc1C | 336 nM (inconclusive) | 553 nM (inconclusive) | 318 nM (active) | 154 nM (active) | 1890 nM (inconclusive) | 15100 nM (inconclusive) | 1420 nM (inconclusive) | < 104 nM (active) | –
